We go through 3 compounds from US20080108676A1, “Benzothiazolecarboxamides” (New Benzothiazolecarboxamides, priority 2004, published 2008).

In the assay the target is T1, hVR1 (Homo sapiens, UniProt Q8NER1).
T1 construct: expressed in transfected cells
T1 sequence (Q8NER1 whole entry): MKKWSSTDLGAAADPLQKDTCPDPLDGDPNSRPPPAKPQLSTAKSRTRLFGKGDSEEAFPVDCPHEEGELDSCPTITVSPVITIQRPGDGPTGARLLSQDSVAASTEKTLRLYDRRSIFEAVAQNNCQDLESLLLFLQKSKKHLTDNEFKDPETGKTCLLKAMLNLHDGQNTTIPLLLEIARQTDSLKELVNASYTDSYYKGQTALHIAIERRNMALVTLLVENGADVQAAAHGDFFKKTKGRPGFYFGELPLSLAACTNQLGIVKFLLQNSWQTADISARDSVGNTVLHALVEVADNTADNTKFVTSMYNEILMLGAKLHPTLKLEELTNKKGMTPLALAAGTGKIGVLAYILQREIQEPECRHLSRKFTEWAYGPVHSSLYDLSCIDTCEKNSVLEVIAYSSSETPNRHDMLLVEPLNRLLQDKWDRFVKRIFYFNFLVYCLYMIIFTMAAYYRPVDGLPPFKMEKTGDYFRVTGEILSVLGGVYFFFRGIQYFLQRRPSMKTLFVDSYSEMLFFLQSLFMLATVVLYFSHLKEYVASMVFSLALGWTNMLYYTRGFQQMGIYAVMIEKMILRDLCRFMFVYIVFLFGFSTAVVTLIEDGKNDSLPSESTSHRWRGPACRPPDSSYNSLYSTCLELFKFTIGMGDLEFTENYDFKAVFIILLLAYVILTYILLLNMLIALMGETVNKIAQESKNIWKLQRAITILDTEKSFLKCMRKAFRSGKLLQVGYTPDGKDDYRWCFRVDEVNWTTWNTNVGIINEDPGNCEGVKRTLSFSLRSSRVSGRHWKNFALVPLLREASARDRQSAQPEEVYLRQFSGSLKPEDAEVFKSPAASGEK
Nature of the assay: hVR1 FLIPR (Fluorometric Image Plate Reader) screening assay, IC50 determination. It is filed as cell-based. The note with it: agonist capsaicin, inhibition of increase in intracellular calcium. As for the experimental part: 1. hVR1 FLIPR (Fluorometric Image Plate Reader) screening assay
Transfected CHO cells, stably expessing hVR1 (15,000 cells/well) are seeded in 50 ul media in a black clear bottom 384 plate (Greiner) and grown in a humidified incubator (37° C., 2% CO2), 24-30 hours prior to experiment.
Subsequently, the media is removed from the cell plate by inversion and 2 μM Fluo-4 is added using a multidrop (Labsystems). Following the 40 minutes dye incubation in the dark at 37° C. and 2% CO2, the extracellular dye present is washed away using an EMBLA (Scatron), leaving the cells in 40 ul of assay buffer (1×HBSS, 10 mM D-Glucose, 1 mM CaCl2, 10 mM HEPES, 10×7.5% NaHCO3 and 2.5 mM Probenecid).
FLIPR Assay—IC50 Determination Protocol
For IC50 determinations the fluorescence is read using FLIPR filter 1 (em […]). A cellular baseline recording is taken for 30 seconds, followed by a 20 μl addition of 10, titrated half-log concentrations of the test compound, yielding cellular concentration ranging from 3 μM to 0.1 nM. Data is collected every 2 seconds for a further 5 minutes prior to the addition of a VR1 agonist solution: either 50 nM solution of capsaicin or MES (2-[N-morpholino]ethanesulfonic acid) buffer (pH 5.2), by the FLIPR pipettor. The FLIPR continues to collect data for a further 4 minutes. […] This consequently leading to a reduction in fluorescence signal and providing a reduced fluorescence reading, compared with no compound, buffer controls. Data is exported by the FLIPR program as a sum of fluorescence calculated under the curve upon the addition of capsaicin. […]
FLIPR (Fluorometric Image Plate Reader) screening assay with HEK T-REX hVR1. […]
For IC50 determinations the fluorescence is read using FLIPR filter 1 (em […]). […] This consequently leading to a reduction in fluorescence signal and providing a reduced fluorescence reading, compared with no compound, buffer controls. Data is exported by the FLIPR program as a sum of fluorescence calculated under the curie upon the addition of capsaicin. […]
Regarding `Cc1nc2cc(C(=O)NCc3ccc(C(F)(F)F)cc3)ccc2s1` [Example 7, 2-methyl-N-[4-trifluoromethylbenzyl]-1,3-benzothiazole-5 carboxamide], the IC50 turned out to be 2780 nM.

For the compound `Cc1nc2cc(C(=O)Nc3ccc(C(C)(C)C)cc3)ccc2s1` [Example 1, N-4-tert-butylphenyl-2-methyl-1,3-benzothiazole-5-carboxamide], the 50% inhibitory concentration (IC50) turned out to be 226 nM.

As to `Cc1nc2cc(C(=O)NCc3cccc(C(F)(F)F)c3)ccc2s1` [Example 8, 2-methyl-N-[3-trifluoromethylbenzyl]-1,3-benzothiazole-5-carboxamide], the IC50 worked out at 1660 nM.
